Assay in all cases: biochemical
Common to all, as to type: biochemical

Assay [1] deals with 363 human kinases (including Aurora A/B/C) (Homo sapiens, UniProt Q9UQM7). Conditions: CAMK2a, [ATP] 100 µM.
Text: (§1) However, the Aurora A/B selectivity ratios derived from our in vitro and in vivo data can be compared to prioritize inhibitors.
Assay [2] deals with T1, 363 human kinases (including Aurora A/B/C) (Homo sapiens, UniProt Q96PN8).
T1 sequence (Q96PN8 1-268): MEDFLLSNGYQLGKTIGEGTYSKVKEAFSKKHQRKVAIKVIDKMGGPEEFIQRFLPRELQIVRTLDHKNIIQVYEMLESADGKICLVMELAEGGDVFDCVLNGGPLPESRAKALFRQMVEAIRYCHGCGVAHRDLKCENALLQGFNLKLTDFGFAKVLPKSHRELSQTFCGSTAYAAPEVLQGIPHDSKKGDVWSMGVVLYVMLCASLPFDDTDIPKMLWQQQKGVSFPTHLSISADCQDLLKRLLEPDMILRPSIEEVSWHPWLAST
The settings on record: TSSK3/STK22C.
Text: as §1

For assay [3], the target named is 363 human kinases (including Aurora A/B/C) (Homo sapiens, UniProt P22612). Conditions: PKAcg.
Sequence of 363 human kinases (including Aurora A/B/C) (Homo sapiens, UniProt P22612) (P22612 whole entry): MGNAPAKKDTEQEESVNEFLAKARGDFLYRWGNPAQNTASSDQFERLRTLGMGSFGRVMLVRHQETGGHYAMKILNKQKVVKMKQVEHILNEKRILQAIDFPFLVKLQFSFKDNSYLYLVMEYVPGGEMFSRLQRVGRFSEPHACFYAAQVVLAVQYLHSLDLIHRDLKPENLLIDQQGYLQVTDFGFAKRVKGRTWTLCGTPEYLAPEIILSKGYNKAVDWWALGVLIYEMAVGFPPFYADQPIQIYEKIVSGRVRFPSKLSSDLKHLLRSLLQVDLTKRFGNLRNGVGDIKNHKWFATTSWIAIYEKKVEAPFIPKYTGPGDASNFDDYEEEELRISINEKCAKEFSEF
Text: as §1
In assay [4] the target is 363 human kinases (including Aurora A/B/C) (Homo sapiens, UniProt P35968). Conditions: KDR/VEGFR2.
Sequence of 363 human kinases (including Aurora A/B/C) (Homo sapiens, UniProt P35968) (P35968 20-1356): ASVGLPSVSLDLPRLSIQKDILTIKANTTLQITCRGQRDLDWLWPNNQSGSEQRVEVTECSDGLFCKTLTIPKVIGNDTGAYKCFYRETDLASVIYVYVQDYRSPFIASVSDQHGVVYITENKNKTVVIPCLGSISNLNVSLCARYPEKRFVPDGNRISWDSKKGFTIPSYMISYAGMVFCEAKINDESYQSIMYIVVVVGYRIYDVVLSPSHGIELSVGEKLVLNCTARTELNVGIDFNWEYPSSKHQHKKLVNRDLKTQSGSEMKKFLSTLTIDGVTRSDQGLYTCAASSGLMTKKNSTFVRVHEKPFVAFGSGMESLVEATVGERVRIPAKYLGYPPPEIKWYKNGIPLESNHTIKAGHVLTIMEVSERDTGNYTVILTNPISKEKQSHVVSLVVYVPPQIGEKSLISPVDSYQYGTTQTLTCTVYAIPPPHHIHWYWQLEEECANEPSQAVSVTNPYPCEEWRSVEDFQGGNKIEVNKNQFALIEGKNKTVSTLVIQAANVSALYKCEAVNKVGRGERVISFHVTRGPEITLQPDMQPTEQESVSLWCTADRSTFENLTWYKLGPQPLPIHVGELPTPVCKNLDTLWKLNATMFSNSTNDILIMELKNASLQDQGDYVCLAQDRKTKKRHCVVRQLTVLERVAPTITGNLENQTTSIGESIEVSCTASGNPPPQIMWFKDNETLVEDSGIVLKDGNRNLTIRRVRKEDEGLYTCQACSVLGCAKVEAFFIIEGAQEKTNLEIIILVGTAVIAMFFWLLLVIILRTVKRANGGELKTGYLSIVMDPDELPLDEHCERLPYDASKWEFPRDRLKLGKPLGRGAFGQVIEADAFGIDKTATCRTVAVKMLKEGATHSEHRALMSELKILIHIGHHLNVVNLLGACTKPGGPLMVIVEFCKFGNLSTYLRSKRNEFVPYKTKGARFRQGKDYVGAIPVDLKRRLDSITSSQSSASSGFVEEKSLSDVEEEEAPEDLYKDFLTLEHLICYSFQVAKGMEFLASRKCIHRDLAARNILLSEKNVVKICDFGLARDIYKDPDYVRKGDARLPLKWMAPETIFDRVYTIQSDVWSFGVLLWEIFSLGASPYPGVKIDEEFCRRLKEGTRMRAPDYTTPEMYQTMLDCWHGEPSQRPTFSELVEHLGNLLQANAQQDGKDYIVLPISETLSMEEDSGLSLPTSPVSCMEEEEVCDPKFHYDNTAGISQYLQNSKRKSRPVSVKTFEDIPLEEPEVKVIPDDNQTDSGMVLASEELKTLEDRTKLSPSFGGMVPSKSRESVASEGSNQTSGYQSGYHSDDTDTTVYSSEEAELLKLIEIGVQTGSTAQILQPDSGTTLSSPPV
Text: as §1
Assay [5] concerns the target 363 human kinases (including Aurora A/B/C) (Homo sapiens, UniProt P09619). The settings on record: PDGFRb.
Text: as §1
The target in assay [6] is 363 human kinases (including Aurora A/B/C) (Homo sapiens, UniProt P29376). Conditions: TYK1/LTK.
Text: as §1
For assay [7], the target named is 363 human kinases (including Aurora A/B/C) (Homo sapiens, UniProt Q13164). The settings on record: ERK5/MAPK7, [ATP] 5 µM.
Sequence of 363 human kinases (including Aurora A/B/C) (Homo sapiens, UniProt Q13164) (Q13164 whole entry): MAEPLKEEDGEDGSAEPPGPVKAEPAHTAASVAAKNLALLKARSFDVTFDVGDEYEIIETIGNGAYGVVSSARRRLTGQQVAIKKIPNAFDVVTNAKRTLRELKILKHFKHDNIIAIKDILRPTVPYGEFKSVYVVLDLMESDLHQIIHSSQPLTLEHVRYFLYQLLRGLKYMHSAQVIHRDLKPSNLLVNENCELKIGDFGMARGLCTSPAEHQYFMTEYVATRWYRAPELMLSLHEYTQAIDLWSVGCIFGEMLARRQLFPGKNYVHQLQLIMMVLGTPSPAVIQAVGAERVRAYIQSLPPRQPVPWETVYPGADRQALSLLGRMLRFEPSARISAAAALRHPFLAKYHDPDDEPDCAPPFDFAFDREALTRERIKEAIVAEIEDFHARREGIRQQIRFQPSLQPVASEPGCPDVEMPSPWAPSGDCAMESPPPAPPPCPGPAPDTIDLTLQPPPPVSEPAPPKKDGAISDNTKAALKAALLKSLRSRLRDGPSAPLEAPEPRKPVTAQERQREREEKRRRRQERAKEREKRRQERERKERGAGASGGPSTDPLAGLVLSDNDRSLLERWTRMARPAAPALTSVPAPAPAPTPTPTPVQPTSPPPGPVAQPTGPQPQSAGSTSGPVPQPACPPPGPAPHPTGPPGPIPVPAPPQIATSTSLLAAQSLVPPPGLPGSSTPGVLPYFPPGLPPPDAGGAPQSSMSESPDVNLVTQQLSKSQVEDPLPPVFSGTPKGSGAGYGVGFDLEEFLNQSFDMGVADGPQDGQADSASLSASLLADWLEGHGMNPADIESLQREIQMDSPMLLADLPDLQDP
Text: as §1
The target in assay [8] is T2, 363 human kinases (including Aurora A/B/C) (Homo sapiens, UniProt Q32MK0).
T2 sequence (Q32MK0 1-819): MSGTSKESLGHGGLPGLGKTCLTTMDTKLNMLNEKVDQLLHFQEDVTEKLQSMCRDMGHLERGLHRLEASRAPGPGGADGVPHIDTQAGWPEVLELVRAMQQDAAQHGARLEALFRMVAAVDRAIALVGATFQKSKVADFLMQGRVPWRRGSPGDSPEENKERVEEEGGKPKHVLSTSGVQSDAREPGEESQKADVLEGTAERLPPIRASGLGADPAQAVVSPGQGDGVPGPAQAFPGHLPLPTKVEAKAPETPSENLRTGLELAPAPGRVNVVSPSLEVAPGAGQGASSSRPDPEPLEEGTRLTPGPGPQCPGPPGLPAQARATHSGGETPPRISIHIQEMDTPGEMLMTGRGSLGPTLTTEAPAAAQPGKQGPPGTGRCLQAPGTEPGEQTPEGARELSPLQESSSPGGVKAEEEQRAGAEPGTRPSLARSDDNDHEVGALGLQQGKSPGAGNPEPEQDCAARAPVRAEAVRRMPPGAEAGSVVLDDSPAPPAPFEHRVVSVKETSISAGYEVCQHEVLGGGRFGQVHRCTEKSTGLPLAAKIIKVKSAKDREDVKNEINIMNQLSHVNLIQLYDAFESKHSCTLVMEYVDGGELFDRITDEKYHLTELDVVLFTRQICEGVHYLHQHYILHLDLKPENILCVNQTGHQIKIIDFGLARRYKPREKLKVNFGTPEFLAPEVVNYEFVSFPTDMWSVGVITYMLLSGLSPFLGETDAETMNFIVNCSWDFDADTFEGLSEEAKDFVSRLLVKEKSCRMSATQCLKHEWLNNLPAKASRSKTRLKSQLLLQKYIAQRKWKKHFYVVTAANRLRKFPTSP
The settings on record: MYLK3.
Text: as §1

Assay [9] concerns the target 363 human kinases (including Aurora A/B/C) (Homo sapiens, UniProt O00238). The settings on record: ALK6/BMPR1B, [ATP] 10 µM.
Text: as §1
Assay [10] addresses 363 human kinases (including Aurora A/B/C) (Homo sapiens, UniProt P11802). The settings on record: for % Enzyme Activity (relative to DMSO controls) / remaining activity at 0.5 µM: 500 nM; for remaining activity at 0.5 µM / remaining activity at 0.1 µM: read-out: % Enzyme Activity (relative to DMSO controls); for remaining activity at 0.1 µM: 100 nM.
Text: as §1
Assay [11] concerns the target 363 human kinases (including Aurora A/B/C) (Homo sapiens, UniProt Q15349). The settings on record: RSK3.
Text: as §1
The target in assay [12] is 363 human kinases (including Aurora A/B/C) (Homo sapiens, UniProt O96013). The settings on record: PAK4.
Text: as §1
Assay [13] addresses T3, 363 human kinases (including Aurora A/B/C) (Homo sapiens, UniProt Q8NE63).
T3 sequence (Q8NE63 1-616): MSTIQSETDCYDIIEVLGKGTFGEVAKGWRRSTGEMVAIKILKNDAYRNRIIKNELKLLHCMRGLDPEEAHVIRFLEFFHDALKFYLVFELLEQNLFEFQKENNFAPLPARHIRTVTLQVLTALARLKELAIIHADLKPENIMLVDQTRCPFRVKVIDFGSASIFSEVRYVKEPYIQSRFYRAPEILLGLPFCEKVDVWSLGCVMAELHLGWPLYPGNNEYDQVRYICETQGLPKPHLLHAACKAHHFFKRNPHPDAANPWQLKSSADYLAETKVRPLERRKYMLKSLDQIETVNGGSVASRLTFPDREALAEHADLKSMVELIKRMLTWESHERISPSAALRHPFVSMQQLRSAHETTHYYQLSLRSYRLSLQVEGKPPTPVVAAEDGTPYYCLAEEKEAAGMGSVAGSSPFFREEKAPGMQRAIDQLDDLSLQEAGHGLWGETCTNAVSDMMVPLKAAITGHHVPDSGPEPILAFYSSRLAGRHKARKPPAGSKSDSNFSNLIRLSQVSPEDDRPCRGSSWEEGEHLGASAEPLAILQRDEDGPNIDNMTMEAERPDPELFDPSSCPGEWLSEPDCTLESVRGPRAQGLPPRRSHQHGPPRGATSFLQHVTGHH
Conditions: HIPK4.
Text: as §1

Assay [14] addresses 363 human kinases (including Aurora A/B/C) (Homo sapiens, UniProt Q9P286). The settings on record: PAK5.
Text: as §1
The mark [15] stands for this setting: 500 nM, read-out: % Enzyme Activity (relative to DMSO controls).
[16] abbreviates: 100 nM, read-out: % Enzyme Activity (relative to DMSO controls).

Read-outs that look alike come from different tables or passages of the source.

Sequence of 363 human kinases (including Aurora A/B/C) (Homo sapiens, UniProt Q15349) (Q15349 whole entry): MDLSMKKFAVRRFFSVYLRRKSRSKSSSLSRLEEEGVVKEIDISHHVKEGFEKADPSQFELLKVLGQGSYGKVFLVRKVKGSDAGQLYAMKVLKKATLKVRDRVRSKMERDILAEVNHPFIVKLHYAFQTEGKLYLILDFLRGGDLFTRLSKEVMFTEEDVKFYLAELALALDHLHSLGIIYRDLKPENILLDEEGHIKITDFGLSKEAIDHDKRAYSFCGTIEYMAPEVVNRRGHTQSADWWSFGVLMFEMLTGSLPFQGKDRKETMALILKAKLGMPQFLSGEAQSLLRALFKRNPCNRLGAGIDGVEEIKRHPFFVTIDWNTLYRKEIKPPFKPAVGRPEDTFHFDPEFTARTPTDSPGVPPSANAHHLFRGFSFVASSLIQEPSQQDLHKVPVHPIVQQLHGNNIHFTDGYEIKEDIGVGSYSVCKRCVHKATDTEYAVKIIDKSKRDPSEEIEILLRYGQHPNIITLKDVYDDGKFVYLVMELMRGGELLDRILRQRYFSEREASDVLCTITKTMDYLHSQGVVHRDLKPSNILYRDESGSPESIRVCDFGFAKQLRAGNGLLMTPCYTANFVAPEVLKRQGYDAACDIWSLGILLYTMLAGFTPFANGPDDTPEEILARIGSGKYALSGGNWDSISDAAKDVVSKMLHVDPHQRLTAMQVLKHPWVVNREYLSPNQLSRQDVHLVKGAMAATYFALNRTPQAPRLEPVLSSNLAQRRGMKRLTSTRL
Sequence of 363 human kinases (including Aurora A/B/C) (Homo sapiens, UniProt O00238) (O00238 14-502): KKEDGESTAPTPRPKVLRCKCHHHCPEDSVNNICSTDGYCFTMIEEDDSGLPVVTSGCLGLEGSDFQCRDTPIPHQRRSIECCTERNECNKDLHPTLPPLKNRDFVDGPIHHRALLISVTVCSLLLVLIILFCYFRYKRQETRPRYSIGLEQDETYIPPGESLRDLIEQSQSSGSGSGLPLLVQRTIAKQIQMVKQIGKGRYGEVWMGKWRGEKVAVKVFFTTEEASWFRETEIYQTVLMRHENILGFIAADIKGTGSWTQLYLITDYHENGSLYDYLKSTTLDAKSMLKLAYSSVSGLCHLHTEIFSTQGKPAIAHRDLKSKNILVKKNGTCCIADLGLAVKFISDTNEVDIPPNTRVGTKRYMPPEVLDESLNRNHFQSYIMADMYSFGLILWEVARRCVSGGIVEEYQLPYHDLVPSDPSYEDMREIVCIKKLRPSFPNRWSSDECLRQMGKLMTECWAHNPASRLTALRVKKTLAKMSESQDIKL
Sequence of 363 human kinases (including Aurora A/B/C) (Homo sapiens, UniProt P11802) (P11802 whole entry): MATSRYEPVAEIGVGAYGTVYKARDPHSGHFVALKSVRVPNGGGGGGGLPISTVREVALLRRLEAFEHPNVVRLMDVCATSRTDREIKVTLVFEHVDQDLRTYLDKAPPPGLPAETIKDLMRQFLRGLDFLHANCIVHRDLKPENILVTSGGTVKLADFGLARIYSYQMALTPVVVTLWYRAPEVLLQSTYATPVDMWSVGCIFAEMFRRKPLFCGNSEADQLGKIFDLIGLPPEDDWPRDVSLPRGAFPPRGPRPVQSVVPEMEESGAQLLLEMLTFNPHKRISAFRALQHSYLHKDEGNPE
Sequence of 363 human kinases (including Aurora A/B/C) (Homo sapiens, UniProt Q9UQM7) (Q9UQM7 whole entry): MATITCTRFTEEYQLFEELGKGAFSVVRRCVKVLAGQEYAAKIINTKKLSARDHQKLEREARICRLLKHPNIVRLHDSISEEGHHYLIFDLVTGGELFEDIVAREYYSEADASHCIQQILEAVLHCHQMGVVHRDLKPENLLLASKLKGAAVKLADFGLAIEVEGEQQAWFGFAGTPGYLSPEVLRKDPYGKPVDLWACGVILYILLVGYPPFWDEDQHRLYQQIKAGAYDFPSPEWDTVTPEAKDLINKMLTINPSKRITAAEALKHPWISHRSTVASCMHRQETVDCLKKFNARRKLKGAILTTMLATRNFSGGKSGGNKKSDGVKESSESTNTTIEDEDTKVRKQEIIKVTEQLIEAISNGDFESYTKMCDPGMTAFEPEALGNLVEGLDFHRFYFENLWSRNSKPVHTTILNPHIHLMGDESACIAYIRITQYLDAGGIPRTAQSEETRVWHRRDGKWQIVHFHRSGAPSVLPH

For `O=C(c1cccc(Cl)c1F)N1CCN(Cc2cccc(Nc3nccs3)n2)CC1` [MK-8745], the “% Enzyme Activity (relative to DMSO controls)” value in assay [1] (500 nM) is given as 101.40%; in assay [2] (500 nM), 94.05%; in assay [3] (500 nM), 97.46%; in [4] (500 nM), 96.11%; in assay [5] (500 nM), 88.70%; in [6] (500 nM) it was 94.24%. The “% Enzyme Activity (relative to DMSO controls)” value in assay [7] (500 nM) turned out to be 88.71%; in assay [8] (500 nM), 102.40%; in assay [9] (500 nM), 91.78%; in [10] (CDK4/cyclin D1, [ATP] 30 µM), 96.49%; in assay [10] (CDK4/cyclin D3, [ATP] 15 µM) it was 93.01%; in assay [11] (500 nM) it was 96.48%. Besides, the entries for the “% Enzyme Activity (relative to DMSO controls)” value in assay [12] (500 nM), in assay [13] (500 nM) and in assay [14] (500 nM) were 92.31%, 76.34% and 92.01%, respectively. The remaining activity at 0.5 µM in assay [1] (setting [15]) amounted to 104%; in assay [2] (setting [15]), 95.9%; in [3] (setting [15]) it was 97.7%; in assay [4] (setting [15]), 96.7%; in assay [5] (setting [15]) it was 89.7%; in assay [6] (setting [15]), 96.4%. The remaining activity at 0.5 µM in assay [7] (setting [15]) was found to be 89%; in assay [8] (setting [15]), 103%; in [9] (setting [15]) it was 92%; in assay [10] (CDK4/cyclin D1, [ATP] 30 µM) it was 97.2%; in assay [10] (CDK4/cyclin D3, [ATP] 15 µM), 93.1%; in [11] (setting [15]), 99.9%. Also, the remaining activity at 0.5 µM was 95.9% in assay [12] (setting [15]), 78.7% in assay [13] (setting [15]) and 103% in assay [14] (setting [15]).
Regarding `CCn1cc(-c2ccnc3[nH]c(-c4cccc(CN(C)C)c4)cc23)c(-c2ccc(NC(=O)N(C)C)cc2)n1` [GSK1070916], the remaining activity at 0.1 µM in assay [1] (setting [16]) came to 102%; in [2] (setting [16]) it was 83%; in assay [3] (setting [16]) it was 102%; in assay [4] (setting [16]), 87.5%; in assay [5] (setting [16]) it was 90.4%; in assay [6] (setting [16]), 106%. Further, the remaining activity at 0.1 µM in assay [7] (setting [16]) was determined as 97.6%; in assay [8] (setting [16]) it was 102%; in assay [9] (setting [16]), 89.2%; in assay [10] (CDK4/cyclin D1, [ATP] 30 µM), 97.5%; in assay [10] (CDK4/cyclin D3, [ATP] 15 µM), 95.6%; in [11] (setting [16]), 95.2%. The results for the remaining activity at 0.1 µM in assay [12] (setting [16]), in assay [13] (setting [16]) and in [14] (setting [16]) were 106%, 86.9% and 99.9%, respectively.
